# Results: the supplement of paper PMC10307832
# Compound: CC1=CC(=CC=C1)NC2=NC(=CS2)C3=CC=NC=C3 + Cc1cc(Nc2cc(N3CCN(C)CC3)nc(Sc3ccc(NC(=O)C4CC4)cc3)n2)n[nH]1 [Tozasertib] (partner 0.1 µM)
# Assay: relative viability (nuclei count vs DMSO), 5 days (fraction); higher = more cells survive
# Conditions: first compound 0.08 µM
# Summary of the method: (§1)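 Relative viability is defined as nuclei in treated wells over nuclei in vehicle wells. Duplicate plates were run and medians reported. Lung cancer cell lines in 1536-well plates were dosed by pin tool one day after seeding, with one drug or with a fixed anchor-drug dose plus five library-drug doses (not always all listed) in √10 steps, and nuclei were counted after 5 days.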
row,Cell Line,relative viability
1,NCI-H661,0.33

# Same assay, conditions: first compound 0.253 µM
row,Cell Line,relative viability
1,NCI-H522,0.54
2,NCI-H1623,0.403
3,NCI-H838,0.227
4,NCI-H1651,0.684
5,NCI-H1734,0.285
6,NCI-H2009,0.699
7,LU99A,0.265
8,PC-14,0.58
9,LCLC-103H,0.405
10,NCI-H596,0.968
11,NCI-H2228,0.198
12,EMC-BAC-2,0.286
13,NCI-H2087,0.229
14,HCC-366,0.0811
15,NCI-H647,0.29
16,LK-2,0.175
17,NCI-H2126,0.756

row,Cell Line,relative viability
1,NCI-H2342,0.423
2,NCI-H1793,0.335
3,H3255,0.624
4,COR-L23,0.189
5,COR-L 105,0.296
6,ChaGo-K-1,0.241
7,HCC-44,0.782
8,SW 900,0.437
9,NCI-H1648,0.315
10,NCI-H2023,0.332
11,NCI-H520,0.458
12,SW 1573,0.168
13,NCI-H1650,0.543
14,SK-LU-1,0.293
15,SK-MES-1,0.679
16,NCI-H661,0.367

# Same assay, conditions: first compound 0.8 µM
row,Cell Line,relative viability
1,NCI-H522,0.59
2,NCI-H1623,0.377
3,NCI-H838,0.242
4,NCI-H1651,0.561
5,NCI-H1734,0.22
6,NCI-H2009,0.715
7,LU99A,0.297
8,PC-14,0.497
9,LCLC-103H,0.427
10,NCI-H596,0.745
11,NCI-H2228,0.175
12,EMC-BAC-2,0.287
13,NCI-H2087,0.245
14,HCC-366,0.081
15,NCI-H647,0.286
16,LK-2,0.173

row,Cell Line,relative viability
1,NCI-H2126,0.798
2,NCI-H2342,0.573
3,NCI-H1793,0.27
4,H3255,0.614
5,COR-L23,0.155
6,COR-L 105,0.282
7,ChaGo-K-1,0.241
8,HCC-44,0.857
9,SW 900,0.476
10,NCI-H1648,0.46
11,NCI-H2023,0.321
12,NCI-H520,0.481
13,SW 1573,0.279
14,NCI-H1650,0.461
15,SK-MES-1,0.722
16,NCI-H661,0.353

# Same assay, conditions: first compound 2.53 µM
row,Cell Line,relative viability
1,NCI-H522,0.504
2,NCI-H1623,0.385
3,NCI-H838,0.234
4,NCI-H1651,0.531
5,NCI-H1734,0.246
6,NCI-H2009,0.823
7,LU99A,0.257
8,PC-14,0.526
9,LCLC-103H,0.429
10,NCI-H596,0.861
11,NCI-H2228,0.162
12,EMC-BAC-2,0.285
13,NCI-H2087,0.19
14,HCC-366,0.0599
15,NCI-H647,0.316
16,NCI-H2126,0.686

row,Cell Line,relative viability
1,NCI-H2342,0.476
2,NCI-H1793,0.242
3,H3255,0.599
4,COR-L23,0.172
5,COR-L 105,0.381
6,ChaGo-K-1,0.235
7,HCC-44,0.676
8,SW 900,0.365
9,NCI-H1648,0.384
10,NCI-H2023,0.228
11,NCI-H520,0.514
12,SW 1573,0.154
13,NCI-H1650,0.363
14,SK-LU-1,0.32
15,SK-MES-1,0.737
16,NCI-H661,0.341

# Same assay, conditions: first compound 8 µM
row,Cell Line,relative viability
1,NCI-H522,0.643
2,NCI-H1623,0.363
3,NCI-H838,0.225
4,NCI-H1651,0.51
5,NCI-H1734,0.23
6,NCI-H2009,0.704
7,LU99A,0.28
8,PC-14,0.555
9,LCLC-103H,0.388
10,NCI-H596,0.746
11,NCI-H2228,0.157
12,EMC-BAC-2,0.323
13,NCI-H2087,0.216
14,HCC-366,0.0456
15,NCI-H647,0.222
16,LK-2,0.184
17,NCI-H2126,0.737

row,Cell Line,relative viability
1,NCI-H2342,0.505
2,NCI-H1793,0.21
3,H3255,0.6
4,COR-L23,0.099
5,COR-L 105,0.372
6,ChaGo-K-1,0.231
7,HCC-44,0.795
8,SW 900,0.299
9,NCI-H1648,0.294
10,NCI-H2023,0.116
11,NCI-H520,0.458
12,SW 1573,0.185
13,NCI-H1650,0.269
14,SK-LU-1,0.302
15,SK-MES-1,0.718
16,NCI-H661,0.333

# Compound: CC1=CC(=CC=C1)NC2=NC(=CS2)C3=CC=NC=C3 + COc1cc2c(Oc3ccc(NC(=O)C4(C(=O)Nc5ccc(F)cc5)CC4)cc3F)ccnc2cc1OCCCN1CCOCC1 [Foretinib] (partner 0.25 µM)
# Assay: as above
# Conditions: first compound 0.08 µM
# Summary of the method: as §1
row,Cell Line,relative viability
1,NCI-H1623,0.836
2,NCI-H838,0.838
3,NCI-H1651,0.825
4,EBC-1,0.0887
5,NCI-H1734,0.821
6,NCI-H2009,1.2
7,LU99A,0.807
8,PC-14,0.875
9,LCLC-103H,0.663
10,NCI-H596,0.804
11,NCI-H2228,0.705
12,EMC-BAC-2,0.888
13,NCI-H2087,0.996
14,Calu-6,0.712
15,HCC-366,0.859
16,NCI-H1703,0.293
17,NCI-H647,0.994
18,NCI-H2126,0.858

row,Cell Line,relative viability
1,NCI-H2342,0.889
2,NCI-H1793,0.65
3,H3255,0.895
4,COR-L23,0.986
5,COR-L 105,1.16
6,IA-LM,1.04
7,ChaGo-K-1,0.977
8,A549,0.882
9,SW 900,1.05
10,NCI-H2023,0.81
11,NCI-H520,0.773
12,SW 1573,0.818
13,NCI-H1299,1
14,NCI-H1563,0.772
15,NCI-H1650,1.13
16,SK-LU-1,0.767
17,SK-MES-1,0.687
18,NCI-H661,0.904

# Same assay, conditions: first compound 0.253 µM
row,Cell Line,relative viability
1,NCI-H1623,0.729
2,NCI-H838,0.861
3,NCI-H1651,0.736
4,EBC-1,0.103
5,NCI-H1734,0.84
6,NCI-H2009,1.11
7,LU99A,0.805
8,PC-14,0.891
9,LCLC-103H,0.695
10,NCI-H596,0.999
11,NCI-H2228,0.955
12,EMC-BAC-2,0.993
13,NCI-H2087,1.12
14,Calu-6,0.795
15,HCC-366,0.89
16,NCI-H1703,0.347
17,NCI-H647,1.15
18,LK-2,1.18
19,NCI-H2126,1.11

row,Cell Line,relative viability
1,NCI-H2342,1.03
2,NCI-H1793,0.663
3,H3255,0.464
4,COR-L23,0.945
5,COR-L 105,0.977
6,IA-LM,1.16
7,ChaGo-K-1,0.938
8,A549,0.914
9,SW 900,0.89
10,NCI-H2023,0.712
11,NCI-H520,0.778
12,SW 1573,0.872
13,NCI-H1299,1.06
14,NCI-H1563,0.962
15,NCI-H1650,1.13
16,SK-LU-1,0.886
17,SK-MES-1,0.78
18,NCI-H661,1.07

# Same assay, conditions: first compound 0.8 µM
row,Cell Line,relative viability
1,NCI-H1623,0.776
2,NCI-H838,0.923
3,NCI-H1651,0.72
4,EBC-1,0.0911
5,NCI-H1734,0.816
6,NCI-H2009,1.14
7,LU99A,0.803
8,PC-14,0.889
9,LCLC-103H,0.725
10,NCI-H596,0.728
11,NCI-H2228,0.766
12,EMC-BAC-2,1
13,NCI-H2087,0.994
14,Calu-6,0.727
15,HCC-366,0.883
16,NCI-H1703,0.367
17,NCI-H647,1.03
18,LK-2,1.36

row,Cell Line,relative viability
1,NCI-H2126,1.08
2,NCI-H2342,0.949
3,NCI-H1793,0.573
4,H3255,0.909
5,COR-L23,0.886
6,COR-L 105,1.01
7,IA-LM,1.03
8,ChaGo-K-1,0.931
9,A549,0.871
10,SW 900,0.797
11,NCI-H2023,0.778
12,NCI-H520,0.71
13,SW 1573,0.97
14,NCI-H1299,0.993
15,NCI-H1563,0.974
16,NCI-H1650,1.04
17,SK-MES-1,0.751
18,NCI-H661,0.973

# Same assay, conditions: first compound 2.53 µM
row,Cell Line,relative viability
1,NCI-H1623,0.699
2,NCI-H838,1.04
3,NCI-H1651,0.917
4,EBC-1,0.117
5,NCI-H1734,0.873
6,NCI-H2009,1.22
7,LU99A,0.915
8,PC-14,0.959
9,LCLC-103H,0.76
10,NCI-H596,0.805
11,NCI-H2228,0.893
12,EMC-BAC-2,0.948
13,NCI-H2087,1.05
14,Calu-6,0.768
15,HCC-366,0.885
16,NCI-H1703,0.374
17,NCI-H647,1.17
18,NCI-H2126,0.982

row,Cell Line,relative viability
1,NCI-H2342,1.08
2,NCI-H1793,0.64
3,H3255,0.822
4,COR-L23,0.864
5,COR-L 105,1.01
6,IA-LM,0.941
7,ChaGo-K-1,0.902
8,A549,0.866
9,SW 900,0.756
10,NCI-H2023,1.09
11,NCI-H520,0.647
12,SW 1573,0.986
13,NCI-H1299,1.01
14,NCI-H1563,0.912
15,NCI-H1650,1.22
16,SK-LU-1,0.781
17,SK-MES-1,1.04
18,NCI-H661,0.999

# Same assay, conditions: first compound 8 µM
row,Cell Line,relative viability
1,NCI-H1623,0.824
2,NCI-H838,0.866
3,NCI-H1651,0.862
4,EBC-1,0.114
5,NCI-H1734,0.794
6,NCI-H2009,1.18
7,LU99A,0.941
8,PC-14,0.928
9,LCLC-103H,0.608
10,NCI-H596,0.838
11,NCI-H2228,0.892
12,EMC-BAC-2,0.879
13,NCI-H2087,0.688
14,Calu-6,0.768
15,HCC-366,0.9
16,NCI-H1703,0.375
17,NCI-H647,1.1
18,LK-2,1.67
19,NCI-H2126,0.862

row,Cell Line,relative viability
1,NCI-H2342,1.14
2,NCI-H1793,0.629
3,H3255,0.875
4,COR-L23,0.87
5,COR-L 105,0.562
6,IA-LM,0.838
7,ChaGo-K-1,0.85
8,A549,0.802
9,SW 900,0.851
10,NCI-H2023,0.681
11,NCI-H520,0.938
12,SW 1573,0.869
13,NCI-H1299,0.897
14,NCI-H1563,0.765
15,NCI-H1650,1.13
16,SK-LU-1,0.76
17,SK-MES-1,0.8
18,NCI-H661,0.863
